In brackets after ≈: the same amount, converted by molar mass. Where two headings read alike, the source gives them in different places.
Legend:
[1] = system: Mycobacterium tuberculosis H37Ra ITM-M006710 (ATCC 9431); experiment: Antimycobacterial microdilution (resazurin) vs Mtb H37Ra; format: cell-based; details: Middlebrook 7H9, resazurin, recalculated from µg/mL, read-out: MIC Mtb H37Ra
[2] = system: Mycobacterium tuberculosis H37Rv CNCTC My 331/88 (ATCC 27294); experiment: Microplate Alamar Blue assay vs Mtb H37Rv; format: cell-based; details: Middlebrook 7H9 pH 6.6, recalculated from µg/mL, read-out: MIC Mtb H37Rv
[3] = system: Mycobacterium kansasii DSM 44,162 (ATCC 12478); experiment: Antimycobacterial microdilution (resazurin) vs M. kansasii; format: cell-based; details: read-out: MIC M. kansasii
[4] = system: Mycobacterium avium DSM 44,156 (ATCC 25291); experiment: Antimycobacterial microdilution (resazurin) vs M. avium; format: cell-based; details: Mycobacterium avium, Middlebrook 7H9, resazurin; read-out: MIC M. avium
[5] = system: Mycolicibacterium aurum DSM 43,999 (ATCC 23366); experiment: Antimycobacterial microdilution (resazurin) vs M. aurum; format: cell-based; details: Middlebrook 7H9, resazurin, read-out: MIC M. aurum
[6] = system: Mycolicibacterium smegmatis DSM 43,465 (ATCC 607); experiment: Antimycobacterial microdilution (resazurin) vs M. smegmatis; format: cell-based; details: Middlebrook 7H9, resazurin, read-out: MIC M. smeg.
[7] = system: Staphylococcus aureus subsp. aureus CCM 4223 (ATCC 29213); experiment: Antibacterial microdilution broth (EUCAST); format: cell-based; details: read-out: MIC Staphylococcus aureus subsp. aureus
[8] = system: methicillin-resistant Staphylococcus aureus subsp. aureus (MRSA) CCM 4750 (ATCC 43300); experiment: microbe, parasite or virus in culture; format: cell-based; details: read-out: MIC Methicillin-resistant Staphylococcus aureus subsp. aureus
[9] = system: Staphylococcus epidermidis CCM 4418 (ATCC 12228); experiment: Antibacterial microdilution broth (EUCAST); format: cell-based; details: read-out: MIC Staphylococcus epidermidis
[10] = system: Enterococcus faecalis CCM 4224 (ATCC 29212); experiment: Antibacterial microdilution broth (EUCAST); format: cell-based; details: read-out: MIC Enterococcus faecalis
[11] = system: Escherichia coli CCM 3954 (ATCC 25922); experiment: Antibacterial microdilution broth (EUCAST); format: cell-based; details: Escherichia coli, read-out: MIC Escherichia coli
[12] = system: Klebsiella pneumoniae CCM 4415 (ATCC 10031); experiment: Antibacterial microdilution broth (EUCAST); format: cell-based; details: Klebsiella pneumoniae, read-out: MIC Klebsiella pneumoniae
[13] = system: Acinetobacter baumannii DSM 30007 (ATCC 19606); experiment: Antibacterial microdilution broth (EUCAST); format: cell-based; details: read-out: MIC Acinetobacter baumannii
[14] = system: Pseudomonas aeruginosa CCM 3955 (ATCC 27853); experiment: Antibacterial microdilution broth (EUCAST); format: cell-based; details: read-out: MIC Pseudomonas aeruginosa
[15] = system: Candida albicans CCM 8320 (ATCC 24433); experiment: Antifungal microdilution broth (EUCAST); format: cell-based; details: Candida albicans, read-out: MIC Candida albicans
[16] = system: Candida krusei CCM 8271 (ATCC 6258); experiment: Antifungal microdilution broth (EUCAST); format: cell-based; details: Pichia kudriavzevii, read-out: MIC Candida krusei
[17] = system: Candida parapsilosis CCM 8260 (ATCC 22019); experiment: Antifungal microdilution broth (EUCAST); format: cell-based; details: Lodderomyces parapsilosis, read-out: MIC Candida parapsilosis
[18] = system: Candida tropicalis CCM 8264 (ATCC 750); experiment: Antifungal microdilution broth (EUCAST); format: cell-based; details: read-out: MIC Candida tropicalis
[19] = system: Aspergillus fumigatus ATCC 204305; experiment: Antifungal microdilution broth (EUCAST); format: cell-based; details: Aspergillus fumigatus, ATCC204305, read-out: MIC Aspergillus fumigatus
[20] = system: Aspergillus flavus CCM 8363; experiment: Antifungal microdilution broth (EUCAST); format: cell-based; details: Aspergillus flavus, CCM8363, read-out: MIC Aspergillus flavus
[21] = system: Lichtheimia corymbifera CCM 8077; experiment: Antifungal microdilution broth (EUCAST); format: cell-based; details: Lichtheimia corymbifera, CCM8077, read-out: MIC Lichtheimia corymbifera
[22] = system: Trichophyton interdigitale CCM 8377 (ATCC 9533); experiment: Antifungal microdilution broth (EUCAST); format: cell-based; details: Trichophyton interdigitale, read-out: MIC Trichophyton interdigitale
HepG2 cell line = experiment: Cytotoxicity screening, CellTiter 96 assay; details: for IC50: Homo sapiens, HepG2, 24 h, read-out: IC50 HepG2
[23] = Mycobacterium tuberculosis, pH 6.6, MABA

**Q.** What does the source list for `O=C(Nc1ccc2c(c1)B(O)OC2)c1ccc(C(F)(F)F)nc1` [Compound 12, N-(1-hydroxy-1,3-dihydrobenzo[c][1,2]oxaborol-6-yl)-6-(trifluoromethyl)nicotinamide]?
**A.** MIC [1]: 194 µM (≈ 62.5 µg/mL); MIC [2, 23]: 155 µM (≈ 50 µg/mL); MIC [3]: 194 µM (≈ 62.5 µg/mL); MIC [4]: 388 µM (≈ 125 µg/mL); MIC [5]: 12.1 µM (≈ 3.91 µg/mL); MIC [6]: 24.2 µM (≈ 7.81 µg/mL); MIC ([7]; 24h incubation): > 500 µM; MIC ([7]; 48h incubation): > 500 µM; MIC ([8]; 24 h): > 500 µM; MIC ([8]; 48 h): > 500 µM; MIC ([9]; 24h incubation): > 500 µM; MIC ([9]; 48h incubation): > 500 µM; MIC ([10]; 24h incubation): > 500 µM; MIC ([10]; 48h incubation): > 500 µM; MIC ([11]; 24h incubation): > 500 µM; MIC ([11]; 48h incubation): > 500 µM; MIC ([12]; 24h incubation): > 500 µM; MIC ([12]; 48h incubation): > 500 µM; MIC ([13]; 24h incubation): > 500 µM; MIC ([13]; 48h incubation): > 500 µM; MIC ([14]; 24h incubation): > 500 µM; MIC ([14]; 48h incubation): > 500 µM; MIC ([15]; 24h incubation): > 500 µM; MIC ([15]; 48h incubation): > 500 µM; MIC ([16]; 24h incubation): > 500 µM; MIC ([16]; 48h incubation): > 500 µM; MIC ([17]; 24h incubation): > 500 µM; MIC ([17]; 48h incubation): > 500 µM; MIC ([18]; 24h incubation): > 500 µM; MIC ([18]; 48h incubation): > 500 µM; MIC ([19]; 24h incubation): > 500 µM; MIC ([19]; 48h incubation): > 500 µM; MIC ([20]; 24h incubation): > 500 µM; MIC ([20]; 48h incubation): > 500 µM; MIC ([21]; 24h incubation): > 500 µM; MIC ([21]; 48h incubation): > 500 µM; MIC ([22]; 72h incubation): > 500 µM; MIC ([22]; 120h incubation): > 500 µM; melting point: 227.3 to 229.4 °C; IC50 (HepG2 cell line): > 250 µM; toxicity to HepG2 up to highest tested concentration (HepG2 cell line; tested up to 500 µM (2, 3), 250 µM (12, 17), 100 µM (6, 7, 11) because of solubility): non-toxic

**Q.** What does the source list for `O=C(Nc1ccc2c(c1)B(O)OC2)c1ccc(O)nc1` [Compound 13, 6-hydroxy-N-(1-hydroxy-1,3-dihydrobenzo[c][1,2]oxaborol-6-yl)nicotinamide]?
**A.** MIC [1]: 463 µM (≈ 125 µg/mL); MIC ([2]; MABA): >370.30 µM; MIC [2, 23]: > 370 µM; MIC ([3]; Middlebrook 7H9, resazurin): 116 µM (≈ 31.3 µg/mL); MIC [4]: 463 µM (≈ 125 µg/mL); MIC [5]: 116 µM (≈ 31.3 µg/mL); MIC [6]: 116 µM (≈ 31.3 µg/mL); MIC ([7]; 24h incubation): > 500 µM; MIC ([7]; 48h incubation): > 500 µM; MIC ([8]; 24 h): > 500 µM; MIC ([8]; 48 h): > 500 µM; MIC ([9]; 24h incubation): > 500 µM; MIC ([9]; 48h incubation): > 500 µM; MIC ([10]; 24h incubation): > 500 µM; MIC ([10]; 48h incubation): > 500 µM; MIC ([11]; 24h incubation): > 500 µM; MIC ([11]; 48h incubation): > 500 µM; MIC ([12]; 24h incubation): > 500 µM; MIC ([12]; 48h incubation): > 500 µM; MIC ([13]; 24h incubation): > 500 µM; MIC ([13]; 48h incubation): > 500 µM; MIC ([14]; 24h incubation): > 500 µM; MIC ([14]; 48h incubation): > 500 µM; MIC ([15]; 24h incubation): > 500 µM; MIC ([15]; 48h incubation): > 500 µM; MIC ([16]; 24h incubation): > 500 µM; MIC ([16]; 48h incubation): > 500 µM; MIC ([17]; 24h incubation): > 500 µM; MIC ([17]; 48h incubation): > 500 µM; MIC ([18]; 24h incubation): > 500 µM; MIC ([18]; 48h incubation): > 500 µM; MIC ([19]; 24h incubation): > 500 µM; MIC ([19]; 48h incubation): > 500 µM; MIC ([20]; 24h incubation): > 500 µM; MIC ([20]; 48h incubation): > 500 µM; MIC ([21]; 24h incubation): > 500 µM; MIC ([21]; 48h incubation): > 500 µM; MIC ([22]; 72h incubation): > 500 µM; MIC ([22]; 120h incubation): > 500 µM; melting point: 304.8 to 306.9 °C; IC50 (HepG2 cell line): > 1000 µM

— publication PMC9917560, “Design, Synthesis and Antimicrobial Evaluation of New N-(1-Hydroxy-1,3-dihydrobenzo[c][1,2]oxaborol-6-yl)(hetero)aryl-2-carboxamides as Potential Inhibitors of Mycobacterial Leucyl-tRNA Synthetase” (International Journal of Molecular Sciences, 2023)
